Where two headings read alike, the source gives them in different places.

The test system of experiment [1] is SULT2B1b-mediated CS production in E0771-SULT cells. As to the kind of experiment: CS production inhibitory effect in E0771-SULT cells (LC/MS/MS quantification of CS). It is filed as cell-based, mouse. The note with it: Mus musculus; for activity at 10 µM: relative to control (100%); for activity at 20 µM: relative to control without compound (100%); for IC50: read-out: IC50 value (CS production); for activity at 1 µM: compound groups B-D. Here is the method:
CS in each human cancer tissue sample was quantified by a method described in NPL 2. To monitor the amounts of CS and/or oxysterol generated in E0771, 3LL, EG.7-OVA, and MC38 cells irrespective of the presence or absence of SULT2B1b expression, cells of each type were seeded in a 6-well plate at 5×10^5 cells/well, and the culture supernatant and cell pellet were collected after 24 hours. Subsequently, deuterium-labeled internal standard (IS) compounds (d7-CS [[…]] and d6-25-hydroxycholesterol) were added to fractions of the culture supernatant and cell pellet, each of which was subjected to extraction with 1 mL of extraction solvent (methanol/chloroform/water=5:2:2 [v/v/v]) to extract CS and oxysterol from the culture supernatant or cell pellet.
Each sample was vigorously mixed with a vortex for 1 minute, and then ultrasonicated for 5 minutes. Thereafter, the sample was centrifuged at 16,000×g and 4° C. for 5 minutes, and the supernatant (700 μl) was collected in a clean tube. Into this, 235 μl of chloroform and 155 μl of water were added and mixed, and the resultant was then subjected to vortexing followed by centrifugation to separate into an aqueous layer and an organic layer. Subsequently, 200 μl of the lowermost layer was dried under a nitrogen flow.
The dried sample was dissolved in 50 μl of methanol, and CS and oxysterol therein were quantified by liquid chromatography-tandem mass spectrometry (LC/MS/MS) with a triple quadrupole mass spectrometer (LCMS-8060; Shimadzu Corporation) equipped with an electrospray ionization (ESI) ion source in a multiple reaction monitoring (MRM) mode.
• Column: Inertsil ODS-4 (2.1×150 mm; particle size: 3 μm; GL Sciences Inc.) • Column temperature: 40° C. • Flow rate: 0.3 ml/min • Mobile phase: (A) water/acetonitrile (1:2, v/v) containing 5 mM ammonium acetate (B) Methanol/Isopropanol (1:19, v/v) Containing 5 mM Ammonium Acetate • Gradient curve: 0 min→22 min: (B) 0%→100%, • 22 min→27 min: (B) 100%, • 27 min→27.1 min: (B) 100%→0%, • 27.1 min→30 min: (B) 0% • Injection volume: 5 μl • Mass spectrometry mode: positive and negative ion modes • Electrospray voltage: 4 kV in positive ion mode, −3.5 kV in negative ion mode • Nebulizer gas flow rate: 3.0 L/min • Drying gas flow rate: 10.0 L/min • Desolvation temperature: 250° C. • Heat block temperature: 400° C. • Detector voltage: 2.16 kV • Used were MRM mode and 2 msec of dwell time per channel.
Absolute CS and oxysterol contents were calculated from calibration curves. MRM calibration curves were prepared with chromatographic peak areas for the analytes relative to peak areas for internal standards through three times of analysis for standard solutions.
The CS production effects of test compounds (compounds 1 to 19, 21, 23, 25, and 27 to 32) were evaluated with the mouse breast cancer cell line E0771 expressing SULT2B1b (E0771-SULT cells).
Specifically, as in the above description in experimental procedure (12), E0771-SULT cells were seeded in a 6-well plate at a proportion of 5×10^5 cells/well, and cultured in the presence or absence (control) of each test compound for 24 hours. After culturing, CS generated in E0771-SULT cells was quantified by LC/MS/MS according to the description in experimental procedure (12). The CS production capacity (% activity) of cells cultured in the presence of each test compound was evaluated from the percentage relative to the CS production level (control) (100%) in E0771-SULT cells cultured in the absence of the test compound, and the CS production inhibitory effect of the test compound was evaluated.

The target of experiment [2] is T1, recombinant human SULT2B1b protein (Homo sapiens, UniProt O00204).
T1 sequence (O00204 1-365): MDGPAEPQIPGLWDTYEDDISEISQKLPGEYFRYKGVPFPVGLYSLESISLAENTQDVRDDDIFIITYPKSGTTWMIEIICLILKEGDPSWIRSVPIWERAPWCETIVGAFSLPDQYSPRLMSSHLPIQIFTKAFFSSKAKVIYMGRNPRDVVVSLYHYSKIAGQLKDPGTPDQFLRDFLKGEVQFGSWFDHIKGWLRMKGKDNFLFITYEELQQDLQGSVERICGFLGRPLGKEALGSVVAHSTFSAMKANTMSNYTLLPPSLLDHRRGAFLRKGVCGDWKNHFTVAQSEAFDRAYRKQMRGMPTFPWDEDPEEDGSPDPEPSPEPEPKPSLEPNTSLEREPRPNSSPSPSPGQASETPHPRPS
As to the kind of experiment: SULT assay (in vitro SULT2B1b enzymatic activity measurement). The class given is biochemical. As to conditions: read-out: in vitro SULT2B1b assay % activity at 200 μM. On the procedure: For screening for a SULT2B1b inhibitor, enzymatic activity measurement for SULT2B1b was carried out by a method described in a previous report (NPL 2) with slight modifications.
The reaction solution (50 μl) was composed of 1 to 5 μg of recombinant human SULT2B1b protein, 10 μM [^3H]cholesterol (approximately 4,000 dpm/pmol), 10 mM Tris-HCl (pH 7.5, containing 5 mM MgCl2) containing 0.1 mM 3′-phosphoadenosine 5′-phosphosulfate (PAPS), 0.2 mM 2-hydroxypropyl-β-cyclodextrin, and 5% (v/v) ethanol. Recombinant human SULT2B1b protein was pre-incubated with 1 μl of a test compound (final concentration: 40 or 200 μM) or DMSO (control) at room temperature for 15 minutes, 2 mM PAPS (2.5 μl) was then added to initiate reaction, the resultant was reacted at 37° C. for 15 minutes, and 0.8 ml of ethanol was added to terminate the reaction.
The solution after the reaction was subjected to thin-layer chromatography (TLC) for separation, and then to a liquid scintillation counter to quantify radiolabeled CS.
From the percentage to the amount ([…]) of radiolabeled CS generated through reaction in the absence of the test compound (DMSO) (control), the SULT2B1b activity (% activity) of SULT2B1b protein in the presence of the test compound was evaluated, and the effect of the test compound to inhibit SULT2B1b-mediated CS production (CS production inhibitory effect) was evaluated.
In enzyme assay, SULT assay was performed with use of cholenoic acid as a compound to be tested at different cholesterol and PAPS concentrations (wherein 0.5 to 1 μg of recombinant human SULT2B1b protein was used, the preincubation time and reaction time were each 10 minutes), and the results were fitted to the Michaelis-Menten equation by using Prism 9 (GraphPad Software, Inc.) to perform enzyme kinetic analysis for the inhibition by cholenoic acid.
SULT assay was performed for the compounds as test compounds by the method described in (14) of “II. Experimental procedure” in Experiment Example 1 to evaluate the SULT2B1b inhibitory effects of the compounds.

[3] abbreviates: 24 h, read-out: CS production % activity at 10 μM, E0771-SULT cells, 24 hours, test compound 10 μM (Table 1).
Where [4] appears, read: 24 h, read-out: CS production % activity at 10 μM, E0771-SULT cells, 24 hours, third concentration column of Table 1, head again printed 10 μM.
Setting [5] is: 24 h, read-out: CS production % activity at 20 μM, E0771-SULT cells, 24 hours, test compound 20 μM.
The mark [6] stands for this setting: 24 h, E0771-SULT cells, 24 hours, test compound 20 μM, read-out: CS production % activity at 20 μM.
The mark [7] stands for this setting: 24 h, E0771-SULT cells, 24 hours, read-out: CS production % activity at 1 μM.
[8] abbreviates: E0771-SULT cells, 24 hours, test compound 20 μM, read-out: CS production % activity at 20 μM.
The mark [9] stands for this setting: E0771-SULT cells, 24 hours, read-out: CS production % activity at 1 μM.

Take `COC(=O)CC[C@@H](C)[C@H]1CC[C@H]2[C@@H]3CC=C4C[C@@H](O)CC[C@]4(C)[C@H]3CC[C@]12C` [Compound 3, methyl (R)-4-((3S,8S,9S,10R,13R,14S,17R)-3-hydroxy-10,13-dimethyl-2,3,4,7,8,9,10,11,12,13,14,15,16,17-tetradecahydro-1H-cyclopenta[a]phenanthren-17-yl)pentanoate]: the activity at 10 µM in experiment [1] (setting [3]) is 48.1%; in experiment [1] (setting [4]), 61.4%. Besides, the activity at 20 µM in experiment [1] (setting [5]) was 56.8%. The IC50 – broadly, the midpoint of a concentration-inhibition curve – in experiment [1] turned out to be 17.3 µM. In experiment [2], the activity at 200 µM amounted to 19%.
As to `COC(=O)CC[C@@H](C)[C@H]1CC[C@H]2[C@@H]3CC=C4C[C@@H](OC(=O)C(F)(F)F)CC[C@]4(C)[C@H]3CC[C@]12C` [Compound 4, methyl (R)-4-((3S,8S,9S,10R,13R,14S,17R)-10,13-dimethyl-3-(2,2,2-trifluoroacetoxy)-2,3,4,7,8,9,10,11,12,13,14,15,16,17-tetradecahydro-1H-cyclopenta[a]phenanthren-17-yl)pentanoate], the activity at 10 µM stood at 79.2% in experiment [1] (24 h, E0771-SULT cells, 24 hours, test compound 10 μM (Table 1), read-out: CS production % activity at 10 μM) and 104% in experiment [1] (24 h, E0771-SULT cells, 24 hours, third concentration column of Table 1, head again printed 10 μM, read-out: CS production % activity at 10 μM). The activity at 20 µM in experiment [1] (setting [6]) was found to be 49.9%. In addition, in experiment [1] (E0771-SULT cells), the IC50 was determined as 20 µM. For the same molecule, the activity at 200 µM in experiment [2] turned out to be 13.6%.
Regarding `CO[C@H]1CC[C@@]2(C)C(=CC[C@H]3[C@@H]4CC[C@H]([C@H](C)CCC(=O)O)[C@@]4(C)CC[C@@H]32)C1` [Compound 6, (R)-4-((3S,8S,9S,10R,13R,14S,17R)-3-methoxy-10,13-dimethyl-2,3,4,7,8,9,10,11,12,13,14,15,16,17-tetradecahydro-1H-cyclopenta[a]phenanthren-17-yl)pentanoic acid], the activity at 10 µM in experiment [1] (setting [3]) is 74.5%; in experiment [1] (setting [4]), 80.7%. Also, the activity at 20 µM in experiment [1] (setting [5]) stood at 70.3%. Moreover, the IC50 in experiment [1] was found to be 32.4 µM. The activity at 200 µM in experiment [2] (test compound 200 μM, relative to DMSO control (100%)) turned out to be 22.9%.
For the molecule `C[C@]12CCC(OC(=O)CCN3CCOCC3)CC1=CC[C@@H]1[C@@H]2CC[C@]2(C)C(=O)CC[C@@H]12` (stereo partly drawn) [Compound 28, (8R,9S,10R,13S,14S)-10,13-dimethyl-17-oxo-2,3,4,7,8,9,10,11,12,13,14,15,16,17-tetradecahydro-1H-cyclopenta[a]phenanthren-3-yl 3-morpholinopropanoate], the activity at 20 µM in experiment [1] (setting [6]) came to 42%. In experiment [1] (setting [7]), the activity at 1 µM is 37.8%. The IC50 in experiment [1] (E0771-SULT cells) amounted to 6.3 µM.
With `C#C[C@]1(O)CC[C@H]2[C@@H]3CC=C4C[C@@H](O)CC[C@]4(C)[C@H]3CC[C@@]21C` [Compound 29, (3S,8R,9S,10R,13S,14S,17R)-17-ethynyl-10,13-dimethyl-2,3,4,7,8,9,10,11,12,13,14,15,16,17-tetradecahydro-1H-cyclopenta[a]phenanthrene-3,17-diol], in experiment [1] (24 h, read-out: CS production % activity at 1 μM, E0771-SULT cells, 24 hours), the activity at 1 µM turned out to be 50.1%. Moreover, the activity at 20 µM in experiment [1] (setting [5]) was 45%. In experiment [1], the IC50 turned out to be 11.8 µM.
For the molecule `C#CC1(OC(C)=O)CCC2C3CCC4=CC(=O)CCC4C3CCC21C` (stereo not drawn) [Compound 30, 19-norethisterone-acetate, reference compound], the activity at 20 µM in experiment [1] (setting [8]) is 61.9%. For the same molecule, the activity at 1 µM in experiment [1] (setting [9]) came out at 80.1%. Also, the IC50 in experiment [1] (E0771-SULT cells) came out at 34.3 µM.
Taken in the same sequence, the figures for `C#CC1(O)CCC2C3CCC4=CC(=O)CCC4C3CCC21C` (stereo not drawn) [Compound 31, 19-norethindrone, reference compound] were 77.5%, 82.8% and 68.4 µM.
`CC1(C2CC[C@H]3[C@@H]4CC=C5C[C@@H](O)CC[C@]5(C)[C@H]4CC[C@]23C)CS1` (stereo partly drawn) [Compound 32, (3S,8S,9S,10R,13S,14S)-10,13-dimethyl-17-(2-methylthiiran-2-yl)-2,3,4,7,8,9,10,11,12,13,14,15,16,17-tetradecahydro-1H-cyclopenta[a]phenanthren-3-ol]: in experiment [1] (setting [6]), the activity at 20 µM was found to be 54.8%. In addition, the activity at 1 µM in experiment [1] (setting [7]) came to 49.7%. In addition, the IC50 in experiment [1] (E0771-SULT cells) stood at 12.8 µM.

The values are drawn from US20250002526A1, “PHARMACEUTICAL COMPOSITION HAVING ANTI-CANCER IMMUNOSTIMULATING EFFECT AND/OR IMMUNE CHECKPOINT INHIBITION POTENTIATING EFFECT” (KYUSHU UNIVERSITY, NATIONAL UNIVERSITY CORPORATION, priority 2021, published 2025).
